Results published in ChEMBL document CHEMBL3817754, “Synthesis and evaluation of donepezilferulic acid hybrids as multi-target-directed ligands against Alzheimer's disease” (Medchemcomm, 2016).
Activity calls are given as the source filed them. The rule behind the calls is not given here.

Experiments:
Acetylcholinesterase [1] = molecular target: Acetylcholinesterase (Electrophorus electricus, UniProt O42275); test: Inhibition of electric eel acetylcholinesterase preincubated for 5 mins followed by addition of acetylthiocholine iodide as substrate measured after 60 to 120 mins by Ellmans method
Sequence of Acetylcholinesterase (Electrophorus electricus, UniProt O42275) (O42275 whole entry): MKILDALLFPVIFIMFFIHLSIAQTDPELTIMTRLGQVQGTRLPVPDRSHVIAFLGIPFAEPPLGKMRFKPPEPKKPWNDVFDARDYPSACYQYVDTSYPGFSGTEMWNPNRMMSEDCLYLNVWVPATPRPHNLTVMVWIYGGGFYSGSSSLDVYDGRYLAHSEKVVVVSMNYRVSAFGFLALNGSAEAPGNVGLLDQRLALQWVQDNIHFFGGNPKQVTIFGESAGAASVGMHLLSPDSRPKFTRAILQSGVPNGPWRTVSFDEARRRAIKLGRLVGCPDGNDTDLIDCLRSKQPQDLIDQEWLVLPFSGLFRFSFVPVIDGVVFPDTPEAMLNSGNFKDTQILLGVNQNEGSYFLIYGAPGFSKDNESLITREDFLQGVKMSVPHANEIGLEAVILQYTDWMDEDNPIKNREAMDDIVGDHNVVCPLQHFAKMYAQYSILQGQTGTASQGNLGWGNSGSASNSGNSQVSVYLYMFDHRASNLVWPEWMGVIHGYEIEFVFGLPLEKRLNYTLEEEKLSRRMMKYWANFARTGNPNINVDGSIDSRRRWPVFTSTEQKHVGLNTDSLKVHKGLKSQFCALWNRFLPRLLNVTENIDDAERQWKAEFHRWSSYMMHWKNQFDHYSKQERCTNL

Cholinesterase [2] = molecular target: Cholinesterase (Equus caballus, UniProt P81908); test: Inhibition of equine serum butyrylcholinesterase preincubated for 5 mins followed by addition of S-butyrylthiocholine iodide as substrate measured after 60 to 120 mins by Ellmans method
Sequence of Cholinesterase (Equus caballus, UniProt P81908) (P81908 whole entry): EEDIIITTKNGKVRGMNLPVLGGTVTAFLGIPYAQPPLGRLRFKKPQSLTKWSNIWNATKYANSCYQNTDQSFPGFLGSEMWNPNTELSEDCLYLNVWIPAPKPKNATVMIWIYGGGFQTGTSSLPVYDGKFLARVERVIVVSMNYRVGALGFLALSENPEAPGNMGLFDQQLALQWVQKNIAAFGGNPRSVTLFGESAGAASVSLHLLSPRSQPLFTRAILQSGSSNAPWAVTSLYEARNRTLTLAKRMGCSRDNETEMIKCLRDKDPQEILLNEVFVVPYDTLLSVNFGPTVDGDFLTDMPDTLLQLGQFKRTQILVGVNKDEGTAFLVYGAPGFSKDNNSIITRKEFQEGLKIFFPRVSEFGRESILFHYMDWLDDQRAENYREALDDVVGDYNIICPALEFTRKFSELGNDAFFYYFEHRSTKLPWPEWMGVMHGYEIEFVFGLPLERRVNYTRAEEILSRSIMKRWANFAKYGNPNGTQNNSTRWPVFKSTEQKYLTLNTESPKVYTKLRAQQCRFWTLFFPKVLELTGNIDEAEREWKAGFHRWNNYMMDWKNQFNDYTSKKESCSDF

[3] = Selectivity index, ratio of IC50 for equine serum butyrylcholinesterase to IC50 for electric eel acetylcholinesterase
[4] = Cytotoxicity against […] PC12 cells assessed as cell viability at 20 uM after 24 hrs by MTT assay; assay type: cell-based; details: rat, pc-12, 24 h
[5] = Antioxidant activity assessed as DPPH radical scavenging activity at 1000 uM incubated in dark for 30 mins by spectrophotometry; assay type: physicochemical; details: 0.5 h
Acetylcholinesterase [6] = molecular target: Acetylcholinesterase (Homo sapiens, UniProt P22303); test: Inhibition of human erythrocytes acetylcholinesterase preincubated for 5 mins followed by addition of acetylthiocholine iodide as substrate measured after 60 to 120 mins by Ellmans method
Sequence of Acetylcholinesterase (Homo sapiens, UniProt P22303) (P22303 whole entry): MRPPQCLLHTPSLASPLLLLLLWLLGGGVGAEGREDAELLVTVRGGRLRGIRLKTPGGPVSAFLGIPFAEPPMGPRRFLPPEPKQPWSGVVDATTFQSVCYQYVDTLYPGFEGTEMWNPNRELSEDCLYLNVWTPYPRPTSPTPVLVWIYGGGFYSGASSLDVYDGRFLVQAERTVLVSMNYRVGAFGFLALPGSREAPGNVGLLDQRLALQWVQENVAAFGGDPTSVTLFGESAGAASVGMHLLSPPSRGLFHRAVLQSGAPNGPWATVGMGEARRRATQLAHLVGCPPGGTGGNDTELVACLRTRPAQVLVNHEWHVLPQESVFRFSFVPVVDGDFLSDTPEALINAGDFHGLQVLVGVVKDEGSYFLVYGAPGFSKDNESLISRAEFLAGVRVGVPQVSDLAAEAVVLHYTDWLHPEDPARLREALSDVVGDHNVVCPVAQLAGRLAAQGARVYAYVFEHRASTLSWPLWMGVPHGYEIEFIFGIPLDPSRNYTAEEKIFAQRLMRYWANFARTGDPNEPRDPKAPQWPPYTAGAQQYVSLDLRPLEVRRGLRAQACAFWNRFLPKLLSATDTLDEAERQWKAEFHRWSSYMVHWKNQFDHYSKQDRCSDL

Cholinesterase [7] = molecular target: Cholinesterase (Homo sapiens, UniProt P06276); test: Inhibition of human serum butyrylcholinesterase preincubated for 5 mins followed by addition of S-butyrylthiocholine iodide as substrate measured after 60 to 120 mins by Ellmans method
Sequence of Cholinesterase (Homo sapiens, UniProt P06276) (P06276 whole entry): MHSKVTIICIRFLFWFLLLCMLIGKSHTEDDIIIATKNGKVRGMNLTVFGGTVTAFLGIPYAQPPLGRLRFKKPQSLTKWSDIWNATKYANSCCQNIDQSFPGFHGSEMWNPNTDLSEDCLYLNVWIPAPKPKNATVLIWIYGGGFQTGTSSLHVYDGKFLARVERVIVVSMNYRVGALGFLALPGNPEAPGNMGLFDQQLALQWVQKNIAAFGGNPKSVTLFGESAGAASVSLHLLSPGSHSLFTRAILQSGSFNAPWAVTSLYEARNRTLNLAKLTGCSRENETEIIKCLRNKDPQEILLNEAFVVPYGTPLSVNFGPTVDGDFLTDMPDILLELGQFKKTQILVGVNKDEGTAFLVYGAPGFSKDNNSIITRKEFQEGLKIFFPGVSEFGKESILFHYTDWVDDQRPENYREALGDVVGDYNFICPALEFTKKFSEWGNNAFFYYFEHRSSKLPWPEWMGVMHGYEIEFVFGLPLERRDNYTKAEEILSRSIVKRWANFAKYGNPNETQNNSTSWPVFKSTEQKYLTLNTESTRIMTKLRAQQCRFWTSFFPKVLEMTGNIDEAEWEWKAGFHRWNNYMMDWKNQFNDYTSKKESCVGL

Homo sapiens = species: Homo sapiens; test: Selectivity index, ratio of IC50 for human serum butyrylcholinesterase to IC50 for human erythrocytes acetylcholinesterase
PC-12 = test: Neuroprotective activity against H2O2 induced damage in […] PC12 cells assessed as cell viability at 1 to 10 uM preincubated for 4 hrs followed by H2O2 challenge for 20 hrs by MTT assay; assay type: functional, cell-based; details: Rattus norvegicus
[8] = DPPH radical solution, 30 min
Description: Antioxidant activity assessed as DPPH radical scavenging activity incubated in dark for 30 mins by spectrophotometry

in vitro = details: PAMPA
[9] = molecular target: Acetylcholinesterase (Electrophorus electricus) (UniProt O42275); test: Inhibition of electric eel acetylcholinesterase at 1000 uM preincubated for 5 mins followed by addition of acetylthiocholine iodide as substrate measured after 60 to 120 mins by Ellmans method
Sequence of Acetylcholinesterase (Electrophorus electricus) (O42275 24-633 limits assumed): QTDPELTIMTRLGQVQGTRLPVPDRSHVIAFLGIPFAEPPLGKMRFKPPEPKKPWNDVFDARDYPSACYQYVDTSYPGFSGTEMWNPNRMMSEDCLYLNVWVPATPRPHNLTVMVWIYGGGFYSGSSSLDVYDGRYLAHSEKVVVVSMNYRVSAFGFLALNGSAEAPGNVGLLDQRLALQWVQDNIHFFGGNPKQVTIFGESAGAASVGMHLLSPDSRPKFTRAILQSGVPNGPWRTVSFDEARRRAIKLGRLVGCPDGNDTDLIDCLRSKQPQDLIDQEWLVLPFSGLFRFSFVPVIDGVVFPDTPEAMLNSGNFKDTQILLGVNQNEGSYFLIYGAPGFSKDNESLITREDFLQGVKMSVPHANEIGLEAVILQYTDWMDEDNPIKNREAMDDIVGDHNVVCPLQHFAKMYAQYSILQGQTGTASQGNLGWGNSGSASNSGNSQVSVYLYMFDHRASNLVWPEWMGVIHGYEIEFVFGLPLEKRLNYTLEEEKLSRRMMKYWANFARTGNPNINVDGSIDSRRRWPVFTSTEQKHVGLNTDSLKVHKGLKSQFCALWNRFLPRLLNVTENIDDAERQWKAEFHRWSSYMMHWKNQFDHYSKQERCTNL

[10] = molecular target: Cholinesterase (Equus caballus) (UniProt P81908); test: Inhibition of equine serum butyrylcholinesterase at 1000 uM preincubated for 5 mins followed by addition of S-butyrylthiocholine iodide as substrate measured after 60 to 120 mins by Ellmans method
Sequence of Cholinesterase (Equus caballus) (P81908 whole entry): as the sequence (P81908 whole entry) above

[11] = molecular target: Acetylcholinesterase (Electrophorus electricus) (UniProt O42275); test: Mixed-type inhibition of electric eel acetylcholinesterase at 0.2 to 0.8 uM preincubated for 5 mins followed by addition of acetylthiocholine iodide as substrate measured after 60 to 120 mins by Lineweaver-Burk plot analysis
[12] = molecular target: Cholinesterase (Equus caballus) (UniProt P81908); test: Mixed-type inhibition of equine serum butyrylcholinesterase at 0.5 to 2 uM preincubated for 5 mins followed by addition of S-butyrylthiocholine iodide as substrate measured after 60 to 120 mins by Lineweaver-Burk plot analysis
[13] = Metal chelating activity assessed as copper-compound complex formation at 75 uM after 30 mins by UV-vis spectrometry; assay type: physicochemical; details: 0.5 h
[14] = Metal chelating activity assessed as ferrous-compound complex formation at 75 uM after 30 mins by UV-vis spectrometry; assay type: physicochemical; details: 0.5 h
[15] = Metal chelating activity assessed as ferric-compound complex formation at 75 uM after 30 mins by UV-vis spectrometry; assay type: physicochemical; details: 0.5 h
[16] = Metal chelating activity assessed as zinc-compound complex formation at 75 uM after 30 mins by UV-vis spectrometry; assay type: physicochemical; details: 0.5 h

Compound	IC50 (Acetylcholinesterase [1]) [µM]	IC50 (Cholinesterase [2]) [nM]	Ratio IC50 [3]	Activity [4]	inhibition (INH) [5]	IC50 (Acetylcholinesterase [6]) [nM]	IC50 (Cholinesterase [7]) [nM]	Ratio IC50 (Homo sapiens)	IC50 [8] [µM]	also measured
COc1cc(/C=C/C(=O)NC2CCN(Cc3ccccc3)CC2)ccc1OC(C)=O	22	17300	0.786	Non-toxic	Not Active					
O=C(/C=C/c1ccc(O)c(O)c1)NCCC1CCN(Cc2ccccc2)CC1	5.17	165000	31.9	Non-toxic		1450	145000	100	10.7	Activity (PC-12): Active; Papp at 16 h, 5 mg/mL (in vitro): 5.38 ×10⁻⁶ cm/s
NC1CCN(Cc2ccccc2)CC1										inhibition [9]: inactive; inhibition [10]: inactive
O=C(/C=C/c1ccc([N+](=O)[O-])cc1)NCCC1CCN(Cc2ccccc2)CC1	0.444	3100	6.98	Non-toxic	Not Active	337	4230	12.5		
O=C(/C=C/c1ccc(F)cc1)NC1CCN(Cc2ccccc2)CC1	59.3	90800	1.53	Non-toxic	Not Active					
O=C(/C=C/c1ccc(O)cc1)NCCC1CCN(Cc2ccccc2)CC1	0.874	1240	1.42	Non-toxic		2200	784	0.36	936	
O=C(/C=C/c1ccccc1)NCCC1CCN(Cc2ccccc2)CC1	0.543	390	0.718	Non-toxic	Not Active	411	1410	3.43		
COc1ccc(/C=C/C(=O)NCCC2CCN(Cc3ccccc3)CC2)cc1O	1.06	2470	2.33	Non-toxic		1660	3240	1.95	764	
COc1cc(CCC(=O)NC2CCN(Cc3ccccc3)CC2)ccc1O	33.6	31900	0.949	Non-toxic					55.1	
COc1cc(/C=C/C(=O)CC(=O)NC2CCN(Cc3ccccc3)CC2)ccc1O	26.3	53200	1.99	Non-toxic					88.7	
COc1cc(/C=C/C(=O)NC2CCN(Cc3ccccc3)CC2)ccc1O	29.3	49200	1.68	Non-toxic					32.5	
COc1cc(/C=C/C(=O)O)ccc1O [FERULATE]			4.95						30.6	inhibition [9]: inactive; inhibition [10]: inactive
COc1cc(/C=C/C(=O)NC2CCN(Cc3ccccc3)CC2)cc(OC)c1OC	31.6	1250	0.038	Non-toxic	Not Active					
O=C(/C=C/c1ccc(F)cc1)NCCC1CCN(Cc2ccccc2)CC1	0.815	1980	2.43	Non-toxic	Not Active	3300	7510	2.28		
COc1cccc(/C=C/C(=O)NCCC2CCN(Cc3ccccc3)CC2)c1	0.383	244	0.642	Non-toxic	Not Active	690	1440	2.09		
O=C(/C=C/c1ccc(Cl)cc1)NCCC1CCN(Cc2ccccc2)CC1	0.521	2770	5.32	Toxic	Not Active	362	2070	5.72		
O=C(/C=C/c1ccc(O)c(O)c1)NC1CCN(Cc2ccccc2)CC1	62.1	15000	0.241	Non-toxic					10.6	Activity (PC-12): Active

Compound	IC50 (Acetylcholinesterase [1]) [µM]	IC50 (Cholinesterase [2]) [nM]	Ratio IC50 [3]	Activity [4]	inhibition (INH) [5]	IC50 (Acetylcholinesterase [6]) [nM]	IC50 (Cholinesterase [7]) [nM]	Ratio IC50 (Homo sapiens)	IC50 [8] [µM]	also measured
COc1ccc(/C=C/C(=O)NCCC2CCN(Cc3ccccc3)CC2)cc1OC	0.285	1550	5.43	Non-toxic	Not Active	526	2540	4.83		
COc1cc(/C=C/C(=O)NCCC2CCN(Cc3ccccc3)CC2)ccc1O	0.651	1220	1.87	Non-toxic		729	1120	1.54	34.1	Activity (PC-12): Active; Papp at 16 h, 5 mg/mL (in vitro): 5.16 ×10⁻⁶ cm/s
COc1cc(/C=C/C(=O)NCCC2CCN(Cc3ccccc3)CC2)cc(OC)c1O	0.398	976	2.2	Non-toxic		321	1220	3.8	24.9	inhibition [11]: Active; inhibition [12]: Active; Activity (PC-12): Active; Activity [13]: Active; Activity [14]: Not Active; Activity [15]: Not Active; Activity [16]: Not Active; Papp at 16 h, 5 mg/mL (in vitro): 7.68 ×10⁻⁶ cm/s
O=C(/C=C/c1ccc(O)cc1)NC1CCN(Cc2ccccc2)CC1	70.8	146000	2.06	Non-toxic					980	
COc1cc(/C=C/C(=O)NC2CCN(Cc3ccccc3)CC2)cc(OC)c1O	28.2	7340	0.26	Non-toxic					22.3	
COc1cc(/C=C/C(=O)NCCC2CCN(Cc3ccccc3)CC2)cc(OC)c1OC	0.13	416	3.2	Non-toxic	Not Active	234	669	2.86		Papp at 16 h, 5 mg/mL (in vitro): 7.43 ×10⁻⁶ cm/s
O=C(/C=C/c1ccc(Cl)cc1)NC1CCN(Cc2ccccc2)CC1	67.7	51400	0.759	Non-toxic	Not Active					
O=C(/C=C/c1ccc([N+](=O)[O-])cc1)NC1CCN(Cc2ccccc2)CC1	7.12	9010	1.26	Non-toxic	Not Active					
COc1cc(CCC(=O)NCCC2CCN(Cc3ccccc3)CC2)ccc1O	7.48	4400	0.588	Non-toxic		5320	286	0.054	48.3	Activity (PC-12): Active
COc1cc(/C=C/C(=O)CC(=O)NCCC2CCN(Cc3ccccc3)CC2)ccc1O	2.6	1080	0.415	Non-toxic					76.8	
O=C(/C=C/c1ccc(O)cc1)CC(=O)NC1CCN(Cc2ccccc2)CC1	58.3	3100	0.053	Non-toxic					890	
O=C(/C=C/c1ccccc1O)NCCC1CCN(Cc2ccccc2)CC1	2.16	1060	0.491	Non-toxic		2680	988	0.37	977	
COc1cc(/C=C/C(=O)CC(=O)/C=C/c2ccc(O)c(OC)c2)ccc1O [CURCUMIN]			4.43						23.3	inhibition [9]: inactive; inhibition [10]: inactive
NCCC1CCN(Cc2ccccc2)CC1	159									inhibition [10]: inactive
COc1cc(/C=C/C(=O)NCCC2CCN(Cc3ccccc3)CC2)ccc1OC(C)=O	0.29	670	2.31	Non-toxic	Not Active	339	245	0.72		
Cc1c(C)c2c(c(C)c1O)CCC(C)(C(=O)O)O2 (stereo not drawn)										Activity (PC-12): Active
